Results published in US9687479B2, “Multisubstituted aromatic compounds as serine protease inhibitors” (VERSEON CORPORATION, priority 2013, dated 2017).

Each compound was assayed against Human thrombin (Homo sapiens (Human), UniProt P00734) (assay: Thrombin protease activity inhibition assay (chromogenic substrate S-2238)). Conditions: 3 nM thrombin, 125 μM S-2238, 10 min pre-incubation, RT.
Format: biochemical
Experimental: The thrombin activity reported herein (e.g., Table A) was obtained as follows. […] Thrombin was assayed in buffer containing 0.05 M Tris (pH 7.4), 0.015 M NaCl and 0.01% PEG-8000. The final concentration of enzyme used was 3 nM thrombin. […] All assays were performed in 96-well microtiter plates at room temperature (RT). […] Inhibitor IC50 values were determined by adding test compound as ten point, three-fold serial dilutions in buffer solution, as known in the art. The plate was read at 10 minutes after substrate addition. The IC50 was calculated by plotting the percent (%) inhibition against compound concentration and fitting the data to a constrained four parameter sigmoidal curve, as known in the art.
In the case of `O=C(c1ccccc1Cl)n1nc(-c2cccn(Cc3ccccc3)c2=O)cc1NCc1ccc(Cl)s1` [Cmpd 55, 1-benzyl-3-1-[(2-chlorophenyl)carbonyl]-5-[(5-chlorothiophen-2-yl)methyl]amino-1H-pyrazol-3-yl-1,2-dihydropyridin-2-one], the IC50 is reported as less than 100 nM. For `CC(C)(C)C(=O)n1nc(-c2cccn(CC#N)c2=O)cc1NCc1ccc(Cl)s1` [Cmpd 56, 2-[3-(5-[(5-chlorothiophen-2-yl)methyl]amino-1-(2,2-dimethylpropanoyl)-1H-pyrazol-3-yl)-2-oxo-1,2-dihydropyridin-1-yl]acetonitrile], the IC50 was less than 100 nM. In the case of `COc1ccccc1C(=O)n1nc(-c2cccn(CC#N)c2=O)cc1NCc1ccc(Cl)s1` [Cmpd 57, 2-[3-(5-[(5-chlorothiophen-2-yl)methyl]amino-1-[(2-methoxyphenyl)carbonyl]-1H-pyrazol-3-yl)-2-oxo-1,2-dihydropyridin-1-yl]acetonitrile], the IC50 is reported as less than 100 nM. Compound `N#CCn1cccc(-c2cc(NCc3ccc(Cl)s3)n(C(=O)c3ccoc3)n2)c1=O` [Cmpd 58, 2-[3-(5-[(5-chlorothiophen-2-yl)methyl]amino-1-[(furan-3-yl)carbonyl]-1H-pyrazol-3-yl)-2-oxo-1,2-dihydropyridin-1-yl]acetonitrile] has an IC50 of less than 100 nM. `N#CCn1cccc(-c2cc(NCc3ccc(Cl)s3)[nH]n2)c1=O` [Cmpd 60, 2-[3-(5-[(5-chlorothiophen-2-yl)methyl]amino-1H-pyrazol-3-yl)-2-oxo-1,2-dihydropyridin-1-yl]acetonitrile] gave an IC50 of 10000 to 100000 nM. For `O=C(c1ccccc1)n1nc(-c2ccc[nH]c2=O)cc1NCc1ccc(Cl)s1` [Cmpd 61, 3-(1-benzoyl-5-[(5-chlorothiophen-2-yl)methyl]amino-1H-pyrazol-3-yl)-1,2-dihydropyridin-2-one], the IC50 was less than 100 nM. Work on `O=C(c1ccccc1)n1nc(-c2cccn(Cc3ccco3)c2=O)cc1NCc1ccc(Cl)s1` [Cmpd 63, 3-(1-benzoyl-5-[(5-chlorothiophen-2-yl)methyl]amino-1H-pyrazol-3-yl)-1-(furan-2-ylmethyl)-1,2-dihydropyridin-2-one] yielded an IC50 of less than 100 nM. Compound `O=C(c1ccccc1)n1nc(-c2cccn(Cc3ccoc3)c2=O)cc1NCc1ccc(Cl)s1` [Cmpd 64, 3-(1-benzoyl-5-[(5-chlorothiophen-2-yl)methyl]amino-1H-pyrazol-3-yl)-1-(furan-3-ylmethyl)-1,2-dihydropyridin-2-one] has an IC50 of less than 100 nM. Work on `O=C(c1ccccc1)n1nc(-c2cccn(Cc3cccnn3)c2=O)cc1NCc1ccc(Cl)s1` [Cmpd 65, 3-(1-benzoyl-5-[(5-chlorothiophen-2-yl)methyl]amino-1H-pyrazol-3-yl)-1-(pyridazin-3-ylmethyl)-1,2-dihydropyridin-2-one] yielded an IC50 of less than 100 nM. Work on `O=C(c1ccccc1)n1nc(-c2cccn(Cc3ccccn3)c2=O)cc1NCc1ccc(Cl)s1` [Cmpd 66, 3-(1-benzoyl-5-[(5-chlorothiophen-2-yl)methyl]amino-1H-pyrazol-3-yl)-1-(pyridin-2-ylmethyl)-1,2-dihydropyridin-2-one] yielded an IC50 of less than 100 nM. In the case of `O=C(c1ccccc1)n1nc(-c2cccn(Cc3cccnc3)c2=O)cc1NCc1ccc(Cl)s1` [Cmpd 67, 3-(1-benzoyl-5-[(5-chlorothiophen-2-yl)methyl]amino-1H-pyrazol-3-yl)-1-(pyridin-3-ylmethyl)-1,2-dihydropyridin-2-one], the IC50 is reported as less than 100 nM. Compound `O=C(c1ccccc1)n1nc(-c2cccn(Cc3ccncc3)c2=O)cc1NCc1ccc(Cl)s1` [Cmpd 68, 3-(1-benzoyl-5-[(5-chlorothiophen-2-yl)methyl]amino-1H-pyrazol-3-yl)-1-(pyridin-4-ylmethyl)-1,2-dihydropyridin-2-one] has an IC50 greater than 100000 nM. `O=C(c1ccccc1)n1nc(-c2cccn(Cc3ncccn3)c2=O)cc1NCc1ccc(Cl)s1` [Cmpd 69, 3-(1-benzoyl-5-[(5-chlorothiophen-2-yl)methyl]amino-1H-pyrazol-3-yl)-1-(pyrimidin-2-ylmethyl)-1,2-dihydropyridin-2-one] was tested, and the IC50 was less than 100 nM. Work on `O=C(c1ccccc1)n1nc(-c2cccn(Cc3cccs3)c2=O)cc1NCc1ccc(Cl)s1` [Cmpd 70, 3-(1-benzoyl-5-[(5-chlorothiophen-2-yl)methyl]amino-1H-pyrazol-3-yl)-1-(thiophen-2-ylmethyl)-1,2-dihydropyridin-2-one] yielded an IC50 of less than 100 nM. `O=C(c1ccccc1)n1nc(-c2cccn(Cc3ccsc3)c2=O)cc1NCc1ccc(Cl)s1` [Cmpd 71, 3-(1-benzoyl-5-[(5-chlorothiophen-2-yl)methyl]amino-1H-pyrazol-3-yl)-1-(thiophen-3-ylmethyl)-1,2-dihydropyridin-2-one] was tested, and the IC50 was less than 100 nM. `O=C(c1ccccc1)n1nc(-c2cccn(Cc3ccccc3)c2=O)cc1NCc1ccc(Cl)s1` [Cmpd 72, 3-(1-benzoyl-5-[(5-chlorothiophen-2-yl)methyl]amino-1H-pyrazol-3-yl)-1-benzyl-1,2-dihydropyridin-2-one] showed an IC50 of less than 100 nM. With `O=C(c1ccco1)n1nc(-c2cccn(Cc3ccccn3)c2=O)cc1NCc1ccc(F)cc1` [Cmpd 74, 3-(5-[(4-fluorophenyl)methyl]amino-1-[(furan-2-yl)carbonyl]-1H-pyrazol-3-yl)-1-(pyridin-2-ylmethyl)-1,2-dihydropyridin-2-one] the IC50 was less than 100 nM. In the case of `COCCn1cccc(-c2cc(NCc3ccc(Cl)s3)n(C(=O)C(C)(C)C)n2)c1=O` [Cmpd 75, 3-(5-[(5-chlorothiophen-2-yl)methyl]amino-1-(2,2-dimethylpropanoyl)-1H-pyrazol-3-yl)-1-(2-methoxyethyl)-1,2-dihydropyridin-2-one], the IC50 is reported as less than 100 nM. `CC(C)(C)C(=O)n1nc(-c2cccn(CCc3ccccc3)c2=O)cc1NCc1ccc(Cl)s1` [Cmpd 76, 3-(5-[(5-chlorothiophen-2-yl)methyl]amino-1-(2,2-dimethylpropanoyl)-1H-pyrazol-3-yl)-1-(2-phenylethyl)-1,2-dihydropyridin-2-one] was tested, and the IC50 was less than 100 nM. `CC(C)(C)C(=O)n1nc(-c2cccn(Cc3ccoc3)c2=O)cc1NCc1ccc(Cl)s1` [Cmpd 78, 3-(5-[(5-chlorothiophen-2-yl)methyl]amino-1-(2,2-dimethylpropanoyl)-1H-pyrazol-3-yl)-1-(furan-3-ylmethyl)-1,2-dihydropyridin-2-one] was tested, and the IC50 was less than 100 nM. For `CC(C)(C)C(=O)n1nc(-c2cccn(Cc3cccc4ccccc34)c2=O)cc1NCc1ccc(Cl)s1` [Cmpd 79, 3-(5-[(5-chlorothiophen-2-yl)methyl]amino-1-(2,2-dimethylpropanoyl)-1H-pyrazol-3-yl)-1-(naphthalen-1-ylmethyl)-1,2-dihydropyridin-2-one], the IC50 was less than 100 nM. In the case of `CC(C)(C)C(=O)n1nc(-c2cccn(Cc3ccc4ccccc4c3)c2=O)cc1NCc1ccc(Cl)s1` [Cmpd 80, 3-(5-[(5-chlorothiophen-2-yl)methyl]amino-1-(2,2-dimethylpropanoyl)-1H-pyrazol-3-yl)-1-(naphthalen-2-ylmethyl)-1,2-dihydropyridin-2-one], the IC50 is reported as less than 100 nM. `CC(C)(C)C(=O)n1nc(-c2cccn(Cc3ccccn3)c2=O)cc1NCc1ccc(Cl)s1` [Cmpd 82, 3-(5-[(5-chlorothiophen-2-yl)methyl]amino-1-(2,2-dimethylpropanoyl)-1H-pyrazol-3-yl)-1-(pyridin-2-ylmethyl)-1,2-dihydropyridin-2-one] gave an IC50 of less than 100 nM. `CC(C)(C)C(=O)n1nc(-c2cccn(Cc3cccnc3)c2=O)cc1NCc1ccc(Cl)s1` [Cmpd 83, 3-(5-[(5-chlorothiophen-2-yl)methyl]amino-1-(2,2-dimethylpropanoyl)-1H-pyrazol-3-yl)-1-(pyridin-3-ylmethyl)-1,2-dihydropyridin-2-one] was tested, and the IC50 was less than 100 nM. For `CC(C)(C)C(=O)n1nc(-c2cccn(Cc3ccncc3)c2=O)cc1NCc1ccc(Cl)s1` [Cmpd 84, 3-(5-[(5-chlorothiophen-2-yl)methyl]amino-1-(2,2-dimethylpropanoyl)-1H-pyrazol-3-yl)-1-(pyridin-4-ylmethyl)-1,2-dihydropyridin-2-one], the IC50 was less than 100 nM. Compound `CC(C)(C)C(=O)n1nc(-c2cccn(Cc3ncccn3)c2=O)cc1NCc1ccc(Cl)s1` [Cmpd 85, 3-(5-[(5-chlorothiophen-2-yl)methyl]amino-1-(2,2-dimethylpropanoyl)-1H-pyrazol-3-yl)-1-(pyrimidin-2-ylmethyl)-1,2-dihydropyridin-2-one] has an IC50 of less than 100 nM. `CC(C)(C)C(=O)n1nc(-c2cccn(Cc3cccs3)c2=O)cc1NCc1ccc(Cl)s1` [Cmpd 86, 3-(5-[(5-chlorothiophen-2-yl)methyl]amino-1-(2,2-dimethylpropanoyl)-1H-pyrazol-3-yl)-1-(thiophen-2-ylmethyl)-1,2-dihydropyridin-2-one] gave an IC50 of less than 100 nM. `CC(C)(C)C(=O)n1nc(-c2cccn(Cc3ccsc3)c2=O)cc1NCc1ccc(Cl)s1` [Cmpd 87, 3-(5-[(5-chlorothiophen-2-yl)methyl]amino-1-(2,2-dimethylpropanoyl)-1H-pyrazol-3-yl)-1-(thiophen-3-ylmethyl)-1,2-dihydropyridin-2-one] showed an IC50 of less than 100 nM. `CC(C)(C)C(=O)n1nc(-c2cccn(CC(=O)N3CCOCC3)c2=O)cc1NCc1ccc(Cl)s1` [Cmpd 88, 3-(5-[(5-chlorothiophen-2-yl)methyl]amino-1-(2,2-dimethylpropanoyl)-1H-pyrazol-3-yl)-1-[2-(morpholin-4-yl)-2-oxoethyl]-1,2-dihydropyridin-2-one] was tested, and the IC50 was less than 100 nM. `CC(C)(C)C(=O)n1nc(-c2cccn(CCN3CCOCC3)c2=O)cc1NCc1ccc(Cl)s1` [Cmpd 89, 3-(5-[(5-chlorothiophen-2-yl)methyl]amino-1-(2,2-dimethylpropanoyl)-1H-pyrazol-3-yl)-1-[2-(morpholin-4-yl)ethyl]-1,2-dihydropyridin-2-one] gave an IC50 of less than 100 nM. With `Cn1cccc(-c2cc(NCc3ccc(Cl)s3)n(C(=O)C(C)(C)C)n2)c1=O` [Cmpd 90, 3-(5-[(5-chlorothiophen-2-yl)methyl]amino-1-(2,2-dimethylpropanoyl)-1H-pyrazol-3-yl)-1-methyl-1,2-dihydropyridin-2-one] the IC50 was less than 100 nM.
